Results from US5773447A, “Compounds for treating disorders of lipid metabolism and their preparation” (Hoechst Aktiengesellschaft, priority 1996, dated 1998).
Structures can show the parent of a compound that is named as a salt.

How the values were obtained:
[1] = Metabolic stability: dealkylation to compound A in in vitro incubations (HPLC); type: in vitro ADME; conditions: human, liver 9000 g fraction, 37° C., R1-dealkylated metabolite, read-out: relative content of compound A; for metabolised at 0.5 h: incubation time 0.5 h; for metabolised at 1 h: incubation time 1 h; for metabolised at 2 h: incubation time 2 h; for metabolised at 3 h: incubation time 3 h
Source text: It is known that compounds of formula I where R^1 =alkyl are degraded in the metabolism to compounds of the formula I where R^1 =H (in the following called compound A). Accordingly, the instant inventors sought to investigate the metabolic fate of our inventive compounds. The following experiments, which can be carried out using intact human hepatocytes or liver extracts, are used to investigate the dealkylation tendency of the compounds of the formula I according to the invention in comparison to 4-amino-2-(4,4-dimethyl-2-oxoimidazolidin-1-yl)pyrimidine-5-N-(ethyl)-N-(3-trifluoromethyl-phenyl)carboxamide hydrochloride (compound of Example 2 from EP 0 557 879--in the following called compound B).
Frozen samples of pieces of human liver stored at -78° C. were thawed by introducing them into a 1.1% strength potassium chloride solution at a temperature of 4° C. […] After thawing, the pieces of liver were prepared by standard processes [A. Y. H. Lu, W. Levin; Biochem. Biophys. Res. Comm. 46, 1339-1344 (1972), P. G. Gervasi et al.; Xenobiotica 12/8, 517 (1982)]. The temperature was kept between 0° and 4° C. during the preparation. The 9000 g fractions of ten human livers were mixed in order to exclude interindividual enzyme differences.
The test substances were dissolved in DMSO at a concentration of about 10 mg/ml. Aliquot parts of this solution were added under sterile conditions to the hepatocyte cultures or the 9000 g fractions. The incubations were carried out at 37° C. in an atmosphere having 5% CO2 and >90% atmospheric humidity. […] NADPH and Mg^2+ were added to the 9000 g fractions as cofactors [P. G. Gervasi et al.; Xenobiotica 12/8, 517 (1982)]. All samples were frozen immediately after incubation and stored at below -20° C. until analysis.
For each species and each time, all incubations with hepatocytes and 9000 g fractions were carried out without addition of a test substance. The samples obtained were used as controls in the chromatographic analysis.
For the quantitative determination of compound A, i.e. the R^1 -dealkylated metabolite, in the in vitro incubation mixtures, […] of each mixture was in each case diluted with […] of bovine serum. These samples were analyzed by the following test for the determination of compound B free base and metabolite compound A free base in serum:
Fifty microliters of the prepared solution of an internal standard (10 μg of a compound of the formula I where R^1 =CH3, R^2, R^3 =H and R^4 =CF3 /ml of methanol), 0.1 ml of sodium acetate buffer (0.4M, pH 5.5) and 5 ml of ethyl ether were added to 0.1 ml of serum. The mixture was shaken for 20 min. After centrifuging, 4 ml of the organic phase were transferred, 3 ml of n-hexane were added and the mixture was extracted with 0.5 ml of 1% strength (v/v) aqueous trifluoroacetic acid. The upper organic layer was aspirated off and discarded. The aqueous residue was evaporated at 40° C. for 30 min. in order to remove residues of the organic solvent. 100 μl of the remaining aqueous phase were injected into the HPLC apparatus. HPLC analysis was carried out on a C18 RP column (TosoHaas Semi-Micro TSK gel ODS 80 TS) using a mobile phase of 800 g of water, 270 g of acetonitrile and 1 ml of trifluoroacetic acid. The flow rate was 0.2 ml/min. The quantitative determination of the analytes was carried out by measuring the peak heights with the aid of a UV detector at γ=240 nm. The calibration range was between 50 and 0.05 μg/ml corresponding to 200 to 0.2 μg/ml in the undiluted in vitro sample. The detection limit was 0.05 μg/ml corresponding to 0.2 μg/ml in the undiluted in vitro sample.

LDL receptor mRNA [2] = experiment: Stimulation of LDL receptor mRNA expression in HepG2 cells (Northern blot); type: cell-based; conditions: Homo sapiens, 2 × 10^-6 M, 16 h incubation, 10% fetal calf serum, LDL receptor/β-actin quotient, control=100%
Source text: (§1) Using a surrogate system, the present inventors sought to confirm the pharmacological activity of the inventive compounds. Thus, utilizing the human hepatocytoma cell line HepG2, which is recognized on all sides as a model, it was observed that the LDL receptor mRNA levels are increased by the compounds of the formula I (Table I). Even in rat livers, within a few hours the LDL receptor mRNA levels are increased by the compounds of the formula I (Table II). The observed stimulation is in the range from 170 to 350% of the controls (control=100%). Accordingly, an effective amount of an inventive compound can include an amount sufficient to increase CDL receptor levels or reduce plasma lipid levels.
The preparation of the mRNA was carried out according to the method of Chomczynski, P. and Sacchi, N., Anal. Biochem. 162, 156-159 (1987). In organs (such as, for example, liver), the deep-frozen tissue was homogenized on dry ice beforehand in a mortar, and the mRNA was further enriched by means of Oligo dT according to standard methods (cf. Sambrook, J., Fritsch, E. F. and Maniatis, T., Molecular Cloning, second Edition, Cold Spring Harbor (1989); in this collection of methods, there are also descriptions of all further relevant molecular biology standard methods used here). […] The filters were then exposed at -70° C. on Cronex 4 films (Dupont) overnight up to 14 days in the presence of an intensifying screen, and the hybridization signals were quantified using a commercial laser densitometer by means of the film-blackening intensity. The quotient of the intensity of the LDL receptor band and of the actin band was then determined as an internal standard to correct yield variations.
Table I presents the stimulation of the LDL receptor mRNA expression in HepG2 cells by selected compounds of formula I in whole serum (final concentration of the compounds […]) after a 16 h incubation. […] The total mRNA was then prepared, and the relevant LDL receptor mRNA and β-actin mRNA levels were determined by means of the Northern blot technique. […]

LDL receptor mRNA [3] = experiment: Stimulation of LDL receptor mRNA expression in rat livers after administration (Northern blot); type: in vivo; conditions: rat liver, 6 hours after administration, untreated control=100%
Source text: as §1
The preparation of the mRNA was carried out according to the method of Chomczynski, P. and Sacchi, N., Anal. Biochem. 162, 156-159 (1987). In organs (such as, for example, liver), the deep-frozen tissue was homogenized on dry ice beforehand in a mortar, and the mRNA was further enriched by means of Oligo dT according to standard methods (cf. Sambrook, J., Fritsch, E. F. and Maniatis, T., Molecular Cloning, second Edition, Cold Spring Harbor (1989); in this collection of methods, there are also descriptions of all further relevant molecular biology standard methods used here). Five to […] of the dissolved mRNA thus obtained were denatured according to standard methods and separated on 1% horizontal agarose gels. The mRNA was transferred to Hybond N membranes (Amersham) by means of capillary blot. The specific hybridization probe used was a partial LDL receptor cDNA clone and the internal standard a plasmid which contained a β-actin gene. Both plasmids were labeled by means of a random primer kit from Amersham up to a specific activity of 5×10^9 cpm/μg. Prehybridization, hybridization and washing of the filters were carried out by standard methods. The filters were then exposed at -70° C. on Cronex 4 films (Dupont) overnight up to 14 days in the presence of an intensifying screen, and the hybridization signals were quantified using a commercial laser densitometer by means of the film-blackening intensity. The quotient of the intensity of the LDL receptor band and of the actin band was then determined as an internal standard to correct yield variations.
Liver tissue was removed and shock-frozen in liquid nitrogen. The mRNA was then isolated as described, and the relative LDL receptor mRNA levels were determined by means of the Northern blot technique. The mRNA levels of untreated control animals were set at 100%, and the stimulation of the LDL receptor mRNA in percent of the control was calculated.

Row | metabolised at 0.5 h [1] [%] | metabolised at 1 h [1] [%] | metabolised at 2 h [1] [%] | metabolised at 3 h [1] [%] | Compound | activity at 2 µM (LDL receptor mRNA [2]) [%] | response vs control in vivo at 30 mg/kg (LDL receptor mRNA [3]) [%]
1 | 4 | 8 | 10 | 12 | CCN(C(=O)c1cnc(N2CC(C)(C)NC2=O)nc1N)c1cccc(C(F)(F)F)c1 [Compound B, 4-amino-2-(4,4-dimethyl-2-oxoimidazolidin-1-yl)pyrimidine-5-N-(ethyl)-N-(3-trifluoromethyl-phenyl)carboxamide hydrochloride, reference compound] |  | 
2 | < 2 | < 2 | 3 | 4 | CC1(C)CN(c2ncc(C(=O)N(CC(F)(F)F)c3cccc(C(F)(F)F)c3)c(N)n2)C(=O)N1 [Example 1, 4-Amino-2-(4,4-dimethylimidazolidin-2-on-1-yl) pyrimidine-5-N-(2,2,2-trifluoroethyl)-N-[(3-trifluoromethyl)phenyl]carboxamide hydrochloride] | 220 | 220
3 |  |  |  |  | CC1(C)CN(c2ncc(C(=O)N(CC(F)(F)C(F)(F)F)c3cccc(C(F)(F)F)c3)c(N)n2)C(=O)N1 [Example 3, 4-Amino-2-(4,4-dimethylimidazolidin-2-on-1-yl-pyrimidine-5-N-(2,2,3,3,3-pentafluoropropyl)-N-[(3trifluoromethyl)phenyl]carboxamide hydrochloride] |  | 200
4 |  |  |  |  | CC1(C)CN(c2ncc(C(=O)N(CC(F)(F)F)c3ccc(F)c(C(F)(F)F)c3)c(N)n2)C(=O)N1 [Example 6, 4-Amino-2-(4,4-dimethylimidazolidin-2-on-1-yl)pyrimidine-5-N-(2,2,2-trifluoroethyl)-N-[(4-fluoro-3-trifluoromethyl)phenyl]carboxamide] |  | 216
5 |  |  |  |  | CC1(C)CN(c2ncc(C(=O)N(CC(F)(F)F)c3ccc(Cl)c(C(F)(F)F)c3)c(N)n2)C(=O)N1 [Example 8, 4-Amino-2-(4,4-dimethylimidazolidin-2-on-1-yl)pyrimidine-5-N-[(4-chloro-3-trifluoromethyl)phenyl]-N-(2,2,2-trifluoroethyl)carboxamide hydrochloride] |  | 182
6 |  |  |  |  | CC1(C)CN(c2ncc(C(=O)N(CC(F)(F)C(F)(F)F)c3ccc(Cl)c(C(F)(F)F)c3)c(N)n2)C(=O)N1 [Example 9, 4-Amino-2-(4,4-dimethylimidazolidin-2-on-1-yl)pyrimidine-5-N-[(4-chloro-3-trifluoromethyl)phenyl]-N-(2,2,3,3,3-pentafluoropropyl)carboxamide] |  | 193
7 |  |  |  |  | CC1(C)CN(c2ncc(C(=O)N(CC(F)(F)C(F)(F)C(F)(F)F)c3ccc(Cl)c(C(F)(F)F)c3)c(N)n2)C(=O)N1 [Example 10, 4-Amino-2-(4,4-dimethylimidazolidin-2-on-1-yl)pyrimidine-5-N-[(4-chloro-3-trifluoromethyl)phenyl]-N-(2,2,3,3,4,4,4-heptafluorobutyl)carboxamide] | 206 | 
8 |  |  |  |  | CC1(C)CN(c2ncc(C(=O)N(CC(F)(F)C(F)(F)F)c3cc(C(F)(F)F)ccc3Cl)c(N)n2)C(=O)N1 [Example 11, 4-Amino-2-(4,4-dimethylimidazolidin-2-on-1-yl)pyrimidine-5-N-[(6-chloro-3-trifluoromethyl)phenyl]-N-(2,2,3,3,3-pentafluoropropyl)carboxamide hydrochloride] | 290 | 
9 | 2 | 4 | 6 | 9 | CC1(C)CN(c2ncc(C(=O)N(CCF)c3cccc(C(F)(F)F)c3)c(N)n2)C(=O)N1 [Example 12, 4-Amino-2-(4,4-dimethylimidazolidin-2-on-1-yl)pyrimidine-5-[N-(3-trifluoromethylphenyl)-N-(2-fluoroethyl)]carboxamide] |  | 
10 |  |  |  |  | CC1(C)CN(c2ncc(C(=O)N(CC(F)(F)C(F)(F)C(F)(F)F)c3cc(C(F)(F)F)ccc3Cl)c(N)n2)C(=O)N1 [Example 14, 4-Amino-2-(4,4-dimethylimidazolidin-2-on-1-yl)pyrimidine-5-[N-(3-trifluoromethyl-6-chlorophenyl)-N-(2,2,3,3,4,4,4-heptafluorobutyl)]-carboxamide] |  | 194
11 |  |  |  |  | CC1(C)CN(c2ncc(C(=O)N(CC(F)(F)C(F)(F)C(F)(F)F)c3ccc(F)c(C(F)(F)F)c3)c(N)n2)C(=O)N1 [Example 17, 4-Amino-2-(4,4-dimethylimidazolidin-2-on-1-yl)-5-pyrimidine-5-[N-(3-trifluoromethyl-4-fluorophenyl)-N-(2,2,3,3,4,4,4-heptafluorobutyl)]-carboxamide] |  | 195

Row | Compound | metabolised at 0.5 h [1] [%] | metabolised at 1 h [1] [%] | metabolised at 2 h [1] [%] | metabolised at 3 h [1] [%] | activity at 2 µM (LDL receptor mRNA [2]) [%] | response vs control in vivo at 30 mg/kg (LDL receptor mRNA [3]) [%]
12 | CC1(C)CN(c2ncc(C(=O)N(CC(F)(F)C(F)(F)C(F)(F)F)c3cccc(C(F)(F)F)c3)c(N)n2)C(=O)N1 [Example 2, 4-Amino-2-(4,4-dimethylimidazolidin-2-on-1-yl)pyrimidine-5-N-(2,2,3,3,4,4,4-heptafluorobutyl)-N-[(3-trifluoromethyl)phenyl]carboxamide hydrochloride] | < 2 | < 2 | < 2 | < 2 |  | 245
